From the NIST ThermoML archive (doi:10.1021/je020205i)

Assay: xn = mol fraction of the nth substance listed
Conditions: Fluid (supercritical or subcritical phases), Taylor dispersion method, x1 = 0

CCCCCC=CCC=CCC=CCC=CCCCC(=O)O [5,8,11,14-eicosatetraenoic acid] + O=C=O
Conditions	binary diffusion coefficient [m2/s]
308.15 K, 9500 kPa	7.5e-09
308.15 K, 10000 kPa	7.17e-09
308.15 K, 10520 kPa	7.03e-09
308.15 K, 10870 kPa	6.75e-09
308.15 K, 11000 kPa	6.58e-09
308.15 K, 11500 kPa	6.57e-09
308.15 K, 12010 kPa	6.7e-09
308.15 K, 12020 kPa	6.48e-09
308.15 K, 12490 kPa	6.27e-09
308.15 K, 12990 kPa	6.18e-09
308.15 K, 14000 kPa	6.17e-09
308.15 K, 15990 kPa	5.9e-09
308.15 K, 17990 kPa	5.63e-09
308.15 K, 20010 kPa	5.48e-09
308.15 K, 22000 kPa	5.38e-09
308.15 K, 24000 kPa	5.25e-09
308.15 K, 26000 kPa	5.11e-09
308.15 K, 28010 kPa	5.02e-09
308.15 K, 30240 kPa	4.99e-09
308.15 K, 30490 kPa	4.85e-09
313.21 K, 9500 kPa	9.04e-09
313.21 K, 10000 kPa	8.41e-09
313.21 K, 11010 kPa	7.76e-09
313.21 K, 12010 kPa	7.1e-09
313.21 K, 14000 kPa	6.66e-09
313.21 K, 16000 kPa	6.29e-09
313.21 K, 18000 kPa	6.06e-09
313.21 K, 20000 kPa	5.78e-09
313.21 K, 22010 kPa	5.64e-09
313.21 K, 24010 kPa	5.53e-09
313.21 K, 26010 kPa	5.36e-09
313.21 K, 28020 kPa	5.24e-09
313.21 K, 30040 kPa	5.1e-09
313.21 K, 30130 kPa	5.1e-09
323.15 K, 12010 kPa	9.02e-09
323.15 K, 12500 kPa	9.07e-09
323.15 K, 13020 kPa	8.66e-09
323.15 K, 13480 kPa	8.28e-09
323.15 K, 14010 kPa	8.15e-09
323.15 K, 15990 kPa	7.44e-09
323.15 K, 18000 kPa	7.03e-09
323.15 K, 20020 kPa	6.78e-09
323.15 K, 21990 kPa	6.42e-09
323.15 K, 24000 kPa	6.21e-09
323.15 K, 26000 kPa	6.02e-09
323.15 K, 28020 kPa	5.88e-09
323.15 K, 30050 kPa	5.64e-09
323.15 K, 30060 kPa	5.82e-09
333.15 K, 13890 kPa	1.05e-08
333.15 K, 15030 kPa	9.16e-09
333.15 K, 15500 kPa	9.04e-09
333.15 K, 16980 kPa	8.47e-09
333.15 K, 17500 kPa	8.32e-09
333.15 K, 19010 kPa	7.91e-09
333.15 K, 19990 kPa	7.67e-09
333.15 K, 22010 kPa	7.26e-09
333.15 K, 24000 kPa	7.01e-09
333.15 K, 26010 kPa	6.81e-09
333.15 K, 26060 kPa	6.78e-09
333.15 K, 28030 kPa	6.68e-09
333.15 K, 30160 kPa	6.49e-09
343.15 K, 16200 kPa	1.01e-08
343.15 K, 16990 kPa	9.57e-09
343.15 K, 17490 kPa	9.45e-09
343.15 K, 18010 kPa	9.14e-09
343.15 K, 18990 kPa	8.93e-09
343.15 K, 19990 kPa	8.61e-09
343.15 K, 21000 kPa	8.46e-09
343.15 K, 22010 kPa	8.32e-09
343.15 K, 22980 kPa	7.87e-09
343.15 K, 23990 kPa	7.79e-09
343.15 K, 26000 kPa	7.58e-09
343.15 K, 28000 kPa	7.12e-09
343.15 K, 28050 kPa	7.3e-09
343.15 K, 30260 kPa	7.13e-09

CCCCC/C=C\C/C=C\CCCCCCCC(=O)O [(Z,Z)-9,12-octadecadienoic acid] + O=C=O
Conditions	binary diffusion coefficient [m2/s]
308.15 K, 8500 kPa	8.7e-09
308.15 K, 8970 kPa	8.31e-09
308.15 K, 10000 kPa	7.53e-09
308.15 K, 11020 kPa	7.33e-09
308.15 K, 12000 kPa	6.89e-09
308.15 K, 14000 kPa	6.45e-09
308.15 K, 16010 kPa	6.13e-09
308.15 K, 17470 kPa	6.02e-09
308.15 K, 18020 kPa	5.9e-09
308.15 K, 20000 kPa	5.85e-09
308.15 K, 21000 kPa	5.71e-09
308.15 K, 22030 kPa	5.69e-09
308.15 K, 25000 kPa	5.26e-09
308.15 K, 26000 kPa	5.2e-09
308.15 K, 28050 kPa	5.05e-09
308.15 K, 30300 kPa	4.96e-09
313.21 K, 9490 kPa	9.47e-09
313.21 K, 10040 kPa	8.74e-09
313.21 K, 10990 kPa	8.03e-09
313.21 K, 12000 kPa	7.7e-09
313.21 K, 14020 kPa	7.17e-09
313.21 K, 15980 kPa	6.75e-09
313.21 K, 17980 kPa	6.47e-09
313.21 K, 20000 kPa	6.13e-09
313.21 K, 21990 kPa	5.97e-09
313.21 K, 24000 kPa	5.77e-09
313.21 K, 26010 kPa	5.63e-09
313.21 K, 27990 kPa	5.46e-09
313.21 K, 30040 kPa	5.49e-09
313.21 K, 30110 kPa	5.39e-09
323.15 K, 12020 kPa	8.9e-09
323.15 K, 12510 kPa	9.15e-09
323.15 K, 13000 kPa	8.86e-09
323.15 K, 14000 kPa	8.58e-09
323.15 K, 16000 kPa	7.76e-09
323.15 K, 18000 kPa	7.39e-09
323.15 K, 20010 kPa	7.06e-09
323.15 K, 22000 kPa	6.83e-09
323.15 K, 24000 kPa	6.57e-09
323.15 K, 26000 kPa	6.37e-09
323.15 K, 28020 kPa	6.12e-09
323.15 K, 30290 kPa	5.9e-09
333.15 K, 13890 kPa	9.59e-09
333.15 K, 14480 kPa	9.99e-09
333.15 K, 15000 kPa	9.67e-09
333.15 K, 15980 kPa	9.33e-09
333.15 K, 18000 kPa	8.66e-09
333.15 K, 20000 kPa	8.28e-09
333.15 K, 20050 kPa	8.17e-09
333.15 K, 22000 kPa	7.82e-09
333.15 K, 24020 kPa	7.58e-09
333.15 K, 26060 kPa	7.21e-09
333.15 K, 27020 kPa	7.14e-09
333.15 K, 28020 kPa	7.03e-09
333.15 K, 29040 kPa	6.99e-09
333.15 K, 30070 kPa	6.82e-09
343.15 K, 16200 kPa	1.02e-08
343.15 K, 16210 kPa	1.04e-08
343.15 K, 16990 kPa	1.02e-08
343.15 K, 17990 kPa	9.85e-09
343.15 K, 18000 kPa	9.84e-09
343.15 K, 18990 kPa	9.43e-09
343.15 K, 20000 kPa	9.01e-09
343.15 K, 20040 kPa	9.18e-09
343.15 K, 22000 kPa	8.71e-09
343.15 K, 24000 kPa	8.37e-09
343.15 K, 26010 kPa	8.11e-09
343.15 K, 26990 kPa	7.88e-09
343.15 K, 28010 kPa	7.77e-09
343.15 K, 29050 kPa	7.81e-09
343.15 K, 30030 kPa	7.64e-09
